Values of other authors in US11752097B2, “N-acetylcysteine compositions and methods” (Endo Ventures Limited, priority 2020, dated 2023).
Where two headings read alike, the source gives them in different places. Values belong to the molecule of their own block, whether it stands above or below them.

How the values were obtained:
[1] = test system: acetaminophen-overdose-induced hepatotoxicity; conditions: in vivo
[2] = pH 7, RT; reaction with Hydroxyl radical (^•OH)
[3] = pH 7, RT; reaction with Superoxide anion (O2^•−)
[4] = pH 7.4, 25° C.
[5] = pH 7.4, 37° C.
[6] = pH 7.4, RT
[7] = pH 7.4, 37° C.; reaction with Nitroxyl (HNO)
[8] = pH 7, 25° C.
[9] = Fe^3+
[10] = Cu^2+
[11] = Ni^2+
[12] = Zn^2+
[13] = Co^2+
[14] = Cr^3+
[15] = Cd^2+
[16] = Hg^2+
[17] = Mn^2+
[18] = following intravenous administration
[19] = not given; remark: listed apart in the source
[20] = not given; remark: listed apart in the source
[21] = ambient light
[22] = not given; remark: listed apart in the source
[23] = ingestion of 10-15 g in a single dose
[24] = 25° C. and 0.12 mol · dm^−3 ionic strength (NaClO4)
[25] = 25° C. and 0.1 mol · dm^−3 ionic strength (KNO3)
[26] = 37° C. and 0.15 mol · dm^−3 ionic strength (NaCl)

Structure (SMILES): CC(=O)N[C@H](CS)C(=O)O (single isomer, unassigned) [D-isomer of acetylcysteine]
Activity of isomer (prevention of hepatotoxicity) [1]: not prevent hepatotoxicity
Activity of isomer (prevention of hepatotoxicity) ([1]; listed as D-isomer): inactive

Structure (SMILES): O=C(O)CN(CCN(CC(=O)O)CC(=O)O)CCN(CC(=O)O)CC(=O)O [DTPA, diethylenetriaminepentaacetic acid]
Complex formation constant (log K) ([9]; conditions not given): 28.60
Complex formation constant (log K) ([10]; conditions not given): 21.53
Complex formation constant (log K) ([11]; conditions not given): 20.32
Complex formation constant (log K) ([12]; conditions not given): 18.75
Complex formation constant (log K) ([13]; conditions not given): 18.40
Complex formation constant (log K) ([15]; conditions not given): 19.31
Complex formation constant (log K) ([16]; conditions not given): 27.00
Complex formation constant (log K) ([17]; conditions not given): 15.60

Structure (SMILES): CC(=O)Nc1ccc(O)cc1 [acetaminophen, Acetaminophen]
time to hepatic damage after overdose [23]: 2 to 5 days

Further lines, with some results ahead:

Complex formation constant (log K) [9, 24]: 10.58
Complex formation constant (log K) [10, 25]: 9.02
Complex formation constant (log K) [10, 26]: 6.64
Complex formation constant (log K) [11, 24]: 5.02
Complex formation constant (log K) [11, 26]: 4.86
Complex formation constant (log K) [12, 25]: 7.04
Complex formation constant (log K) [12, 26]: 6.23
Complex formation constant (log K) [13, 24]: 4.18
Complex formation constant (log K) [13, 26]: 4.28
Complex formation constant (log K) [14, 24]: 8.26
Complex formation constant (log K) [15, 25]: 7.25
Complex formation constant (log K) [16, 25]: 11.23
Complex formation constant (log K) [17, 26]: 3.64
half-life (t1/2) (following an intravenous administration): 5.7 h
administered acetylcysteine excreted in the urine unchanged (in vivo): 20-30%
Solubility: volume of alcohol for 1 gram ([19]; 1 gram in alcohol): 4 mL
Solubility: volume of water for 1 gram ([19]; 1 gram in water): 5 mL
Solubility in chloroform ([19]; chloroform): insoluble
Solubility in ether ([19]; ether): insoluble
redox potential ([20]; relative to Glutathione (reduced GSH/oxidized GSSG) system as a reference standard): +63 mV
Light stability [21]: stable in ambient light
Reaction with contact materials ([22]; glass, plastic, aluminum, anodized aluminum, chromed metal and stainless steel): does not react
Structure (SMILES): CC(=O)N[C@@H](CS)C(=O)O [Acetylcysteine, N-acetyl-L-cysteine]
Rate constant [2]: 1.36e+10 M⁻¹ s⁻¹
Rate constant [3]: 68 ± 6 M⁻¹ s⁻¹
Rate constant [4]: 0.85 ± 0.09 M⁻¹ s⁻¹
Rate constant [5]: 415 ± 10 M⁻¹ s⁻¹
Rate constant ([5]; reaction with Peroxynitrite): 415 ± 10 M⁻¹ s⁻¹
Rate constant [6]: ~1e+07 M⁻¹ s⁻¹
Rate constant [7]: 500000 M⁻¹ s⁻¹
Rate constant [8]: (1.36 ± 0.2) × 10^4 M^−1 s^−1
Potential adverse reactions [18]: acute flushing and erythema of the skin, and anaphylactoid reactions
Reaction of solutions with contact materials ([22]; contact with rubber, some metals (particularly iron and copper surfaces), and/or autoclaving): discoloration and hydrogen sulfide generation
Activity of isomer (prevention of hepatotoxicity) [1]: active

Complex formation constant (log K) ([9]; conditions not given): 25.10
Complex formation constant (log K) ([10]; conditions not given): 18.80
Complex formation constant (log K) ([11]; conditions not given): 18.62
Complex formation constant (log K) ([12]; conditions not given): 16.50
Complex formation constant (log K) ([13]; conditions not given): 16.31
Complex formation constant (log K) ([14]; conditions not given): 23.40
Complex formation constant (log K) ([15]; conditions not given): 16.46
Complex formation constant (log K) ([16]; conditions not given): 21.80
Complex formation constant (log K) ([17]; conditions not given): 14.04
Structure (SMILES): O=C(O)CN(CCN(CC(=O)O)CC(=O)O)CC(=O)O [EDTA, Ethylenediaminetetraacetic acid]

experimental redox potential ([20]; in the cytosol): −289 mV
Structure (SMILES): N[C@@H](CCC(=O)N[C@@H](CS)C(=O)NCC(=O)O)C(=O)O [Glutathione]
